Assay results taken from US6461997B1, “Triazole sulfones having herbicidal activity” (Monsanto Technology LLC, priority 1999, dated 2002).

Tests used:
[1] = tested on: GALAP (catchweed bedstraw); experiment: Pre-emergence herbicidal activity, cool season; format: in vivo, Galium aparine; settings: lowest tested rate with 80% or greater inhibition; rates 300, 100, 30, 10 g/ha; about 14 days
Protocol: (§1) Tables 5 to 8 summarize results of tests conducted as described below to determine the pre-emergence herbicidal activity, in the form of a GR80 value, of illustrative compounds of this invention. […] Compounds of the invention were typically applied at rates of 300, 100, 30, and 10 g/ha. Where herbicidal activity was evident but 80% inhibition was not achieved at the highest rate tested, an asterisk (*) is shown in the following tables.
(§2) The pre-emergence tests were conducted by the following procedure. Topsoil was sieved to pass through a 1.27 cm screen. Fertilizer was added to the topsoil and the mixture was then sterilized by heating. The topsoil mixture was placed in a pot and compacted to a depth of 1.0 to 1.25 cm from the top of the pot. Seeds of each of several monocotyledonous and dicotyledonous annual plant species were placed on top of the soil. Additional soil was subsequently placed over the seeds to level-fill the pot. A known amount of each test compound dissolved or suspended in an appropriate organic solvent was diluted with a 50:50 mix of acetone and water and applied to the surface of the soil. After treatment the plants were placed in a greenhouse where they received 0.64 cm of overhead irrigation. All subsequent watering consisted of a light overhead mist and/or subirrigation as needed for germination and growth. Tables 5 and 6 below relate to warm season plant species which were placed after pre-emergence treatment in a greenhouse with a 30/21° C. day/night temperature regime. Tables 7 and 8 below relates to cool season plant species placed after pre-emergence treatment in a greenhouse or growth chamber with an 18/13° C. day/night temperature regime.
(§3) Approximately 14 days after planting and treating, the plants were observed and herbicidal efficacy recorded as percent inhibition by comparison with untreated plants.
(§4) The plant species usually regarded as weeds which were utilized in the tests are identified in the tables below according to the following legend, in which “d” indicates a dicotyledonous species and “m” a monocotyledonous species. All monocotyledonous species included in the tests herein are grasses.

POLCO (wild buckwheat) = experiment: Pre-emergence herbicidal activity, cool season; format: in vivo, Polygonum convolvulus; settings: lowest tested rate with 80% or greater inhibition; rates 300, 100, 30, 10 g/ha; about 14 days
Protocol: as §1, §2, §3, §4

SINAR (wild mustard) = experiment: Pre-emergence herbicidal activity, cool season; format: in vivo, Sinapis arvensis; settings: lowest tested rate with 80% or greater inhibition; rates 300, 100, 30, 10 g/ha; about 14 days
Protocol: as §1, §2, §3, §4

[2] = tested on: VERPE (creeping speedwell); experiment: Pre-emergence herbicidal activity, cool season; format: in vivo, Veronica persicaria; settings: lowest tested rate with 80% or greater inhibition; rates 300, 100, 30, 10 g/ha; about 14 days
Protocol: as §1, §2, §3, §4

SASKR (russian thistle) = experiment: Pre-emergence herbicidal activity, cool season; format: in vivo, Salsola kali; settings: lowest tested rate with 80% or greater inhibition; rates 300, 100, 30, 10 g/ha; about 14 days
Protocol: as §1, §2, §3, §4

STEME (common chickweed) = experiment: Pre-emergence herbicidal activity, cool season; format: in vivo, Stellaria media; settings: lowest tested rate with 80% or greater inhibition; rates 300, 100, 30, 10 g/ha; about 14 days
Protocol: as §1, §2, §3, §4

[3] = tested on: LAMPU (purple deadnettle); experiment: Pre-emergence herbicidal activity, cool season; format: in vivo, Lamium purpureum; settings: lowest tested rate with 80% or greater inhibition; rates 300, 100, 30, 10 g/ha; about 14 days
Protocol: as §1, §2, §3, §4

[4] = tested on: AGSST (creeping bentgrass); experiment: Pre-emergence herbicidal activity, cool season; format: in vivo, Agrostis stolonifera; settings: GR80 = lowest tested rate (300, 100, 30, 10 g/ha) with 80% or greater inhibition; approx. 14 days after treating; 18/13° C.
Protocol: as §1, §2, §3, §4

[5] = tested on: PANMI (wild proso millet); experiment: Pre-emergence herbicidal activity, warm season; format: in vivo, Panicum miliaceum; settings: GR80 = lowest tested rate (300, 100, 30, 10 g/ha) with 80% or greater inhibition; approx. 14 days after treating; 30/21° C.
Protocol: as §1, §2, §3, §4

SETVI (green foxtail) = experiment: Pre-emergence herbicidal activity, cool season; format: in vivo, Setaria viridis; settings: GR80 = lowest tested rate (300, 100, 30, 10 g/ha) with 80% or greater inhibition; approx. 14 days after treating; 18/13° C.
Protocol: as §1, §2, §3, §4

ECHCG (barnyardgrass) = experiment: Pre-emergence herbicidal activity, warm season; format: in vivo, Echinochloa crus-galli; settings: GR80 = lowest tested rate (300, 100, 30, 10 g/ha) with 80% or greater inhibition; approx. 14 days after treating; 30/21° C.
Protocol: as §1, §2, §3, §4

| Structure (SMILES) | Pre-emergence activity GR80, GALAP [1] | Pre-emergence activity GR80, POLCO (POLCO (wild buckwheat)) | Pre-emergence activity GR80, SINAR (SINAR (wild mustard)) | Pre-emergence activity GR80, VERPE [2] | Pre-emergence activity GR80, SASKR (SASKR (russian thistle)) | Pre-emergence activity GR80, STEME (STEME (common chickweed)) | Pre-emergence activity GR80, LAMPU [3] | Pre-emergence activity (GR80) AGSST [4] [g/ha] | Pre-emergence activity (GR80) PANMI [5] [g/ha] | Pre-emergence activity (GR80) SETVI (SETVI (green foxtail)) [g/ha] | Pre-emergence activity (GR80) ECHCG (ECHCG (barnyardgrass)) [g/ha] |
| --- | --- | --- | --- | --- | --- | --- | --- | --- | --- | --- | --- |
| O=C(N1CCOCC1)n1cnc(S(=O)(=O)C(F)F)n1 [Example 25] | 300 g/ha | [empty] | [empty] | [empty] | [empty] | [empty] | 300 g/ha |  |  |  |  |
| COCCN(C)C(=O)n1cnc(S(=O)(=O)C(F)F)n1 [Example 29] | [empty] | [empty] | 300 g/ha | 100 g/ha | 300 g/ha | 300 g/ha | 300 g/ha | 300 |  |  |  |
| CCN(CC)C(=S)n1cnc(S(=O)(=O)C(F)F)n1 [Example 35] | 100 g/ha | 100 g/ha | 100 g/ha | 100 g/ha | [empty] | [empty] | 300 g/ha |  |  |  |  |
| CN(C(=O)n1cnc(S(=O)(=O)C(F)(F)Br)n1)c1ccccc1 [Example 38] | [empty] | [empty] | [empty] | [empty] | [empty] | [empty] | [empty] |  |  |  |  |
| C#CCN(C)C(=O)n1cnc(S(=O)(=O)C(F)(F)Br)n1 [Example 42] | 300 g/ha | [empty] | [empty] | [empty] | [empty] | [empty] | [empty] | 100 | 300 |  |  |
| CCSC(F)(F)S(=O)(=O)c1ncn(C(=O)N(C)c2ccccc2)n1 [Example 50] | 100 g/ha | [empty] | [empty] | [empty] | [empty] | 300 g/ha | [empty] | 30 | 300 |  |  |
| C=CCN(C)C(=O)n1cnc(S(=O)(=O)C(F)(F)SCC)n1 [Example 53] | 300 g/ha | [empty] | [empty] | [empty] | [empty] | [empty] | [empty] | 300 | 300 | 300 |  |
| C#CCN(C)C(=O)n1cnc(S(=O)(=O)C(F)(F)SCC)n1 [Example 54] | [empty] | 100 g/ha | [empty] | 300 g/ha | [empty] | [empty] | [empty] |  | 300 |  |  |
| O=C(N1CCOCC1)n1cnc(S(=O)(=O)C(F)(F)C(F)F)n1 [Example 60] | [empty] | [empty] | [empty] | [empty] | [empty] | [empty] | [empty] |  |  |  |  |
| CN(C(=O)n1cnc(S(=O)(=O)C(F)(F)C(F)F)n1)c1ccccc1 [Example 62] | [empty] | [empty] | [empty] | [empty] | [empty] | [empty] | 300 g/ha |  |  |  |  |
| O=C(N1CCOCC1)n1cnc(S(=O)(=O)C(F)(F)C(F)(F)Br)n1 [Example 72] | [empty] | 300 g/ha | [empty] | [empty] | [empty] | [empty] | [empty] |  |  |  |  |
| CN(C(=O)n1cnc(S(=O)(=O)C(F)(F)C(F)(F)Br)n1)c1ccccc1 [Example 74] | [empty] | [empty] | 300 g/ha | 300 g/ha | 300 g/ha | [empty] | 300 g/ha |  | 300 |  |  |
| C=CCN(C)C(=O)n1cnc(S(=O)(=O)C(F)(F)C(F)(F)Br)n1 [Example 77] | [empty] | [empty] | [empty] | [empty] | [empty] | [empty] | [empty] | 300 |  |  |  |
| CN(C(=O)n1cnc(S(=O)(=O)C(F)(F)C(F)(F)Br)n1)C1CCCCC1 [Example 79] | 300 g/ha | 300 g/ha | 300 g/ha | 30 g/ha | [empty] | 100 g/ha | 100 g/ha | 100 | 300 | 300 | 300 |
| CN(Cc1ccccc1)C(=O)n1cnc(S(=O)(=O)C(F)(F)C(F)(F)Br)n1 [Example 80] | [empty] | [empty] | [empty] | [empty] | [empty] | [empty] | [empty] |  | 300 | 300 |  |
| CN(C(=O)n1cnc(S(=O)(=O)C(F)(F)Cl)n1)c1ccccc1 [Example 86] | 300 g/ha | [empty] | 300 g/ha | 100 g/ha | 300 g/ha | [empty] | 100 g/ha |  |  |  |  |
| C#CCN(C)C(=O)n1cnc(S(=O)(=O)C(F)(F)Cl)n1 [Example 90] | [empty] | [empty] | 300 g/ha | 10 g/ha | 30 g/ha | [empty] | [empty] |  |  |  |  |
